In publication PMC10747725, “The Synthesis, In Vitro Bio-Evaluation, and In Silico Molecular Docking Studies of Pyrazoline–Thiazole Hybrid Analogues as Promising Anti-α-Glucosidase and Anti-Urease Agents” (Pharmaceuticals, 2023):
Read-outs that look alike come from different tables or passages of the source.

Columns and labels:
[1] = target: α-glucosidase; assay: α-Glucosidase inhibitory assay; format: biochemical; settings: in vitro; standard acarbose; N.A * = Not active; read-out: α-Glucosidase IC50 (µM ±SEM)
Protocol: A procedure based on the previously reported procedure with minor modifications was used to determine the inhibitory capacity of the newly designed derivatives of benzothiazole-derived pyrazoline-based thiazole (1–17). For 20 min at 37 °C, […] in 100 mM of phosphate buffer (pH 6.8) for 20 min. The reaction mixture was then incubated for 1 h at 37 °C with 250 mL of 4-nitrophenyl-b-D-glucopyranoside solution and 250 mL of 1% starch dissolved in 100 mM of phosphate buffer (pH 6.8), respectively. Following this, the reaction mixture was heated for 10 min with 1.0 mL of 3,5-dinitrosalicylic acid colouring reagent. The absorbance of the final reaction mixture was determined for α-glucosidase at 405 nm. To correct the absorbance, a blank was prepared. […] A percentage of the inhibitory activity was calculated using a control sample without the inhibitors.

[2] = target: urease (Canavalia ensiformis, UniProt P07374); assay: biochemical
Protocol: During the experiment, 55 L of buffer solution containing 100 mM of urea was combined with 25 L of enzyme solution to prepare reaction mixtures. A volume of 5 L containing 1 mM concentrations of recently produced compounds was then added to these mixtures. After 15 min of incubation at 30 °C, the reactions were allowed to occur in 96-well plates. The detection of ammonia generation by urease was carried out by using the Indophenol technique. A phenol reagent containing 1% w/v phenol and 0.005% w/v sodium nitroprusside was added to each well along with 70 µL of an alkali reagent containing 0.5% w/v NaOH and 0.1% active chloride NaOCl. Utilizing a microplate reader manufactured by Molecular Device in the United States, the increased absorbance was measured at 630 nm after another 50 min. In triplicate, the aforementioned procedures were performed using a constant end volume of […]. The final data, representing the rate at which the absorbance changed per minute, were analysed with the SoftMax Pro program by Molecular Device, New York, NY, USA. In alkaline conditions with a pH of 8.2, the experiments were conducted using 0.01 M K2HPO4·3H2O, 1 mM EDTA, and 0.01 M LiCl. A conventional inhibitor of urease, thiourea, was used in this study to determine the percentage of inhibition.

Sequence of urease (P07374 whole entry, looked up): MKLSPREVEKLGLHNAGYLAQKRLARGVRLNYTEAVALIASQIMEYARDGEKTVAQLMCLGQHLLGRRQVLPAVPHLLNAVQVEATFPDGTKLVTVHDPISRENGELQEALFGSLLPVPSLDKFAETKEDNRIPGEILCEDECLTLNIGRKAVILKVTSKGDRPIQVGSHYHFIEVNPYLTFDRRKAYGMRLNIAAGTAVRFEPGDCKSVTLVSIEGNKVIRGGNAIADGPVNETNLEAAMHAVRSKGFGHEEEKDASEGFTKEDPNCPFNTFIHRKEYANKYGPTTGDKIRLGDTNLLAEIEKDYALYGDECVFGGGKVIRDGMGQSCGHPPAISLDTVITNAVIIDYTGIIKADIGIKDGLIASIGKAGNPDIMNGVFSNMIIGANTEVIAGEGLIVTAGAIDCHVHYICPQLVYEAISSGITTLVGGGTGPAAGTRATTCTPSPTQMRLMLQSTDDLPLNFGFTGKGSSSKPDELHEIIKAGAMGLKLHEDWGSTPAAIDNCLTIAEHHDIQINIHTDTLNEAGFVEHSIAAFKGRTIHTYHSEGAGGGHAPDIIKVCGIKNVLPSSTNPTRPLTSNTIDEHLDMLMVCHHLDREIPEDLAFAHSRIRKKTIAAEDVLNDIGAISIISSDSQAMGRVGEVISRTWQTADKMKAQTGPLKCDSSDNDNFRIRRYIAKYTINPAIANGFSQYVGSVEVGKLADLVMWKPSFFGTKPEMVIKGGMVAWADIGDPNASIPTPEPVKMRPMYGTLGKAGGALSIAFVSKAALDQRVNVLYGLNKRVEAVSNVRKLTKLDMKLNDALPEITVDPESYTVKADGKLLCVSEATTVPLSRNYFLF

| Structure (SMILES) | IC50 [1] [µM] | IC50 [2] [µM] | melting point [°C] | IC50 ([2]; in vitro, standard thiourea, N.A * = Not active, read-out: Urease IC50 (µM ± SEM)) [µM] |
| --- | --- | --- | --- | --- |
| O=[N+]([O-])c1cc(Br)ccc1-c1csc(N2N=C(c3cc(Cl)cnc3Cl)CC2c2nc3ccccc3s2)n1 (stereo not shown) [Compound 1, 2-(1-(4-(4-Bromo-2-nitrophenyl)thiazol-2-yl)-3-(2,5-dichloropyridin-3-yl)-4,5-dihydro-1H-pyrazol-5-yl)benzo[d]thiazole] | 13.1 ± 0.4 | 41.5 ± 1.7 | 233 to 234 |  |
| Cc1ccc(C)c(-c2csc(N3N=C(c4cc(Cl)cnc4Cl)CC3c3nc4ccccc4s3)n2)c1 (stereo not shown) [Compound 2, 2-(3-(2,5-Dichloropyridin-3-yl)-1-(4-(2,5-dimethylphenyl)thiazol-2-yl)-4,5-dihydro-1H-pyrazol-5-yl)benzo[d]thiazole] | 14.2 ± 0.1 | 37.2 ± 1.9 | 219 to 220 |  |
| Cc1ccc(-c2csc(N3N=C(c4cc(Cl)cnc4Cl)CC3c3nc4ccccc4s3)n2)cc1 (stereo not shown) [Compound 3, 2-(3-(2,5-Dichloropyridin-3-yl)-1-(4-(p-tolyl)thiazol-2-yl)-4,5-dihydro-1H-pyrazol-5-yl)benzo[d]thiazole] | 7.5 ± 0.1 | 33.2 ± 3.8 | 227 to 228 |  |
| O=[N+]([O-])c1ccc(-c2csc(N3N=C(c4cc(Cl)cnc4Cl)CC3c3nc4ccccc4s3)n2)cc1 (stereo not shown) [Compound 4, 2-(3-(2,5-Dichloropyridin-3-yl)-1-(4-(4-nitrophenyl)thiazol-2-yl)-4,5-dihydro-1H-pyrazol-5-yl)benzo[d]thiazole] | 4.1 ± 0.3 | 23.3 ± 2.4 | 232 to 233 |  |
| O=[N+]([O-])c1ccccc1-c1csc(N2N=C(c3cc(Cl)cnc3Cl)CC2c2nc3ccccc3s2)n1 (stereo not shown) [Compound 5, 2-(3-(2,5-Dichloropyridin-3-yl)-1-(4-(2-nitrophenyl)thiazol-2-yl)-4,5-dihydro-1H-pyrazol-5-yl)benzo[d]thiazole] | 6.7 ± 0.3 | 32.5 ± 2.1 | 224 to 225 |  |
| FC(F)(F)c1ccc(-c2csc(N3N=C(c4cc(Cl)cnc4Cl)CC3c3nc4ccccc4s3)n2)cc1 (stereo not shown) [Compound 6, 2-(3-(2,5-Dichloropyridin-3-yl)-1-(4-(4-(trifluoromethyl)phenyl)thiazol-2-yl)-4,5-dihydro-1H-pyrazol-5-yl)benzo[d]thiazole] | 2.5 ± 0.3 | 14.3 ± 3.9 | 225 to 226 |  |
| Oc1cc(F)ccc1-c1csc(N2N=C(c3cc(Cl)cnc3Cl)CC2c2nc3ccccc3s2)n1 (stereo not shown) [Compound 7, 2-(2-(5-(Benzo[d]thiazol-2-yl)-3-(2,5-dichloropyridin-3-yl)-4,5-dihydro-1H-pyrazol-1-yl)thiazol-4-yl)-5-fluorophenol] | 3.2 ± 0.1 | 19.2 ± 0.1 | 228 to 229 |  |
| CN(C)c1ccc(-c2csc(N3N=C(c4cc(Cl)cnc4Cl)CC3c3nc4ccccc4s3)n2)cc1 (stereo not shown) [Compound 8, 4-(2-(5-(Benzo[d]thiazol-2-yl)-3-(2,5-dichloropyridin-3-yl)-4,5-dihydro-1H-pyrazol-1-yl)thiazol-4-yl)-N,N-dimethylaniline] |  | 39.2 ± 0.6 | 231 to 232 |  |
| O=[N+]([O-])c1cc(Cl)ccc1-c1csc(N2N=C(c3cc(Cl)cnc3Cl)CC2c2nc3ccccc3s2)n1 (stereo not shown) [Compound 9, 2-(1-(4-(4-Chloro-2-nitrophenyl)thiazol-2-yl)-3-(2,5-dichloropyridin-3-yl)-4,5-dihydro-1H-pyrazol-5-yl)benzo[d]thiazole] | 4.4 ± 0.3 | 29.4 ± 0.1 | 230 to 231 |  |
| COc1ccc(OC)c(-c2csc(N3N=C(c4cc(Cl)cnc4Cl)CC3c3nc4ccccc4s3)n2)c1 (stereo not shown) [Compound 10, 2-(3-(2,5-Dichloropyridin-3-yl)-1-(4-(2,5-dimethoxyphenyl)thiazol-2-yl)-4,5-dihydro-1H-pyrazol-5-yl)benzo[d]thiazole] | 8.9 ± 0.2 | 33.7 ± 0.1 | 234 to 235 |  |
| Fc1ccccc1-c1csc(N2N=C(c3cc(Cl)cnc3Cl)CC2c2nc3ccccc3s2)n1 (stereo not shown) [Compound 11, 2-(3-(2,5-Dichloropyridin-3-yl)-1-(4-(2-fluorophenyl)thiazol-2-yl)-4,5-dihydro-1H-pyrazol-5-yl)benzo[d]thiazole] |  |  | 221 to 222 |  |
| Fc1ccc(-c2csc(N3N=C(c4cc(Cl)cnc4Cl)CC3c3nc4ccccc4s3)n2)cc1 (stereo not shown) [Compound 12, 2-(3-(2,5-Dichloropyridin-3-yl)-1-(4-(4-fluorophenyl)thiazol-2-yl)-4,5-dihydro-1H-pyrazol-5-yl)benzo[d]thiazole] | 3.5 ± 0.1 | 22.3 ± 0.8 | 226 to 227 |  |
| Clc1cnc(Cl)c(C2=NN(c3nc(-c4ccc(OCc5ccccc5)cc4)cs3)C(c3nc4ccccc4s3)C2)c1 (stereo not shown) [Compound 13, 2-(1-(4-(4-(Benzyloxy)phenyl)thiazol-2-yl)-3-(2,5-dichloropyridin-3-yl)-4,5-dihydro-1H-pyrazol-5-yl)benzo[d]thiazole] |  |  | 242 to 243 |  |
| Oc1cc(Cl)cc(Cl)c1-c1csc(N2N=C(c3cc(Cl)cnc3Cl)CC2c2nc3ccccc3s2)n1 (stereo not shown) [Compound 14, 2-(2-(5-(Benzo[d]thiazol-2-yl)-3-(2,5-dichloropyridin-3-yl)-4,5-dihydro-1H-pyrazol-1-yl)thiazol-4-yl)-3,5-dichlorophenol] | 3.4 ± 0.1 | 21.8 ± 2.9 | 238 to 239 |  |
| Cc1cc(-c2csc(N3N=C(c4cc(Cl)cnc4Cl)CC3c3nc4ccccc4s3)n2)cc(C)c1Br (stereo not shown) [Compound 15, 2-(1-(4-(4-Bromo-3,5-dimethylphenyl)thiazol-2-yl)-3-(2,5-dichloropyridin-3-yl)-4,5-dihydro-1H-pyrazol-5-yl)benzo[d]thiazole] |  |  | 221 to 222 |  |
| Clc1cnc(Cl)c(C2=NN(c3nc(-c4ccc5ccccc5c4)cs3)C(c3nc4ccccc4s3)C2)c1 (stereo not shown) [Compound 16, 2-(3-(2,5-Dichloropyridin-3-yl)-1-(4-(naphthalen-2-yl)thiazol-2-yl)-4,5-dihydro-1H-pyrazol-5-yl)benzo[d]thiazole] |  |  | 243 to 244 |  |
| Clc1cnc(Cl)c(C2=NN(c3nc(-c4cccc(Cl)c4Cl)cs3)C(c3nc4ccccc4s3)C2)c1 (stereo not shown) [Compound 17, 2-(1-(4-(2,3-Dichlorophenyl)thiazol-2-yl)-3-(2,5-dichloropyridin-3-yl)-4,5-dihydro-1H-pyrazol-5-yl)benzo[d]thiazole] | 6.8 ± 0.2 | 31.3 ± 0.4 | 236 to 237 |  |
| NC(N)=S [Thiourea, thiourea, reference compound] |  |  |  | 31.4 ± 2.5 |
